Legend:
[1] = test system: MCF-7 (human breast cancer); assay: Methyl-Tetrazolium viability assay, MCF-7; assay type: cell-based; parameters: key: absorbance (optical density) at 570 nm, second wavelength subtracted
Text: (§1) Three different viability assays were chosen to complement each other and yielded results dependent on concentration and cell line: the Methyl Tetrazolium dye assay, the Sulforhodamine B fluorescent dye assay, and the Crystal Violet dye assay.
The Methyl-Tetrazolium dye assay measures the activity of enzymes in mitochondria. The dye precursor is taken up by cells, where it undergoes reduction to the purple formazan. It measures only the mitochondrial activity and, thus, it is not always a reliable indication of whether the cells themselves are alive or dead, since even a recently dead cell has […] enzyme activity in mitochondria. Intracellular glucose concentration, pH, and time before assay all affect the measurements.
(§2) The Methyl Tetrazolium, Sulforhodamine B, and Crystal Violet assays were used to assess cell viabilities. The incubation times were 24 hours, 48 hours, and 72 hours. The Nerium oleander extract Anvirzel™ (a hot water extract of oleander obtained from Salud Integral, Honduras) was tested in concentrations ranging from 0.01 ng/mL to 10 ng/mL.
(§3) Cells were detached by trypsinization (Trypsin-0.25% EDTA, Invitrogen, 25200-072) during the logarithmic phase of culture growth and plated in 96-well plates (18.000 cells/well) (Corning, Costar 359) in a final volume of 200 μl of medium per well. […] The absorbance was measured after 24 hours, 48 hours, and 72 hours of incubation.
For the Methyl-Tetrazolium assay, the dye (Sigma, M2128; 5 mg/mL, diluted in phosphate-buffered saline) was added to each well and plates were incubated for 3 hours at 37° C. After the end of the incubation period, the medium was discarded and the cells were rinsed with phosphate-buffered saline. Finally, the formazan crystals were dissolved in dimethylsulphoxide (Sigma, D4540).
(§4) The optical density of each plate was measured on a μQuant spectrophotometer and the data were analyzed with Gen5 software (μQuant Biomolecular Spectrophotometer MQX200 and Gen5™ Microplate Data Collection & Analysis software, BioTek® Instruments. Inc, April 2008). Absorbance was measured at 570 nm for all assays and a second wavelength was measured in order to subtract noise. For the Methyl-Tetrazolium assay this second wavelength was 630 nm and for the Sulforhodamine B and Crystal Violet assays it was 690 nm.

[2] = test system: HCT-116 (colorectal cancer); assay: Crystal Violet viability assay, HCT-116; assay type: cell-based, human; parameters: key: absorbance at 570 nm (crystal violet), background wavelength subtracted; conditions: for Average CVE: HCT-116
Text: as §1
The Sulforhodamine B and Crystal Violet assays provide information about protein and were used to complement the Methyl-Tetrazolium dye assay. […] It is used for the quantification of cellular proteins of cultured cells. The assay using Crystal Violet, a dye that binds electrostatically to proteins and stains DNA, provides a reliable, simple assay for measuring viability of cells.
as §2, §3
For the Crystal Violet assay, the medium was removed from the 96-well plates, the plates rinsed with PBS (Sigma, P3813) and then the cells were […] by the addition of 10% formalin (MERCK, 1.04003.2500) for 20 minutes at RT. Formalin was removed and 0.25% aqueous crystal violet (Sigma, HT901), dissolved in water, was added for 10 minutes at RT. Unbound Crystal Violet was rinsed by washing with water and finally 33% acetic acid was added to dissolve the dye.
as §4

N.N.[Cl][Pt][Cl] [cisplatin]
MTT Average ([1]; MCF-7, Run 2, 24 h, 0.1 μg/ml CDDP): 0.263
MTT Average ([1]; MCF-7, Run 2, 24 h, 1 μg/ml CDDP): 0.027
MTT Average ([1]; MCF-7, Run 2, 24 h, 10 μg/ml CDDP): 0.124
MTT Average ([1]; MCF-7, Run 2, 24 h, 100 μg/ml CDDP): 0.029
MTT Average ([1]; MCF-7, Run 2, 48 h, 0.1 μg/ml CDDP): 0.37
MTT Average ([1]; MCF-7, Run 2, 48 h, 1 μg/ml CDDP): 0.025
MTT Average ([1]; MCF-7, Run 2, 48 h, 10 μg/ml CDDP): 0.045
MTT Average ([1]; MCF-7, Run 2, 48 h, 100 μg/ml CDDP): 0.029
MTT Average ([1]; MCF-7, Run 2, 72 h, 0.1 μg/ml CDDP): 0.39
MTT Average ([1]; MCF-7, Run 2, 72 h, 1 μg/ml CDDP): 0.038
MTT Average ([1]; MCF-7, Run 2, 72 h, 10 μg/ml CDDP): 0.028
MTT Average ([1]; MCF-7, Run 2, 72 h, 100 μg/ml CDDP): 0.013
MTT Average ([1]; MCF-7, Run 3, 24 h, 0.1 μg/ml CDDP): 0.516
MTT Average ([1]; MCF-7, Run 3, 24 h, 1 μg/ml CDDP): 0.039
MTT Average ([1]; MCF-7, Run 3, 24 h, 10 μg/ml CDDP): 0.135
MTT Average ([1]; MCF-7, Run 3, 24 h, 100 μg/ml CDDP): 0.026
MTT Average ([1]; MCF-7, Run 3, 48 h, 0.1 μg/ml CDDP): 0.525
MTT Average ([1]; MCF-7, Run 3, 48 h, 1 μg/ml CDDP): 0.041
MTT Average ([1]; MCF-7, Run 3, 48 h, 10 μg/ml CDDP): 0.03
MTT Average ([1]; MCF-7, Run 3, 48 h, 100 μg/ml CDDP): 0.032
MTT Average ([1]; MCF-7, Run 3, 72 h, 0.1 μg/ml CDDP): 0.546
MTT Average ([1]; MCF-7, Run 3, 72 h, 1 μg/ml CDDP): 0.035
MTT Average ([1]; MCF-7, Run 3, 72 h, 10 μg/ml CDDP): 0.032
MTT Average ([1]; MCF-7, Run 3, 72 h, 100 μg/ml CDDP): 0.018
MTT Average ([1]; MCF-7 Run 1, 24 h, 0.1 μg/ml CDDP): 0.574
MTT Average ([1]; MCF-7 Run 1, 24 h, 1 μg/ml CDDP): 0.066
MTT Average ([1]; MCF-7 Run 1, 24 h, 10 μg/ml CDDP): 0.194
MTT Average ([1]; MCF-7 Run 1, 24 h, 100 μg/ml CDDP): 0.034
MTT Average ([1]; MCF-7 Run 1, 48 h, 0.1 μg/ml CDDP): 0.719
MTT Average ([1]; MCF-7 Run 1, 48 h, 1 μg/ml CDDP): 0.051
MTT Average ([1]; MCF-7 Run 1, 48 h, 10 μg/ml CDDP): 0.069
MTT Average ([1]; MCF-7 Run 1, 48 h, 100 μg/ml CDDP): 0.025
MTT Average ([1]; MCF-7 Run 1, 72 h, 0.1 μg/ml CDDP): 0.788
MTT Average ([1]; MCF-7 Run 1, 72 h, 1 μg/ml CDDP): 0.048
MTT Average ([1]; MCF-7 Run 1, 72 h, 10 μg/ml CDDP): 0.047
MTT Average ([1]; MCF-7 Run 1, 72 h, 100 μg/ml CDDP): 0.023
CVE Average ([2]; HCT-116, Run 3, 24 h, 0.1 μg/ml CDDP): 0.371
CVE Average ([2]; HCT-116, Run 3, 24 h, 1 μg/ml CDDP): 0.267
CVE Average ([2]; HCT-116, Run 3, 24 h, 10 μg/ml CDDP): 0.393
CVE Average ([2]; HCT-116, Run 3, 24 h, 100 μg/ml CDDP): 0.256
CVE Average ([2]; HCT-116, Run 3, 48 h, 0.1 μg/ml CDDP): 1.153
CVE Average ([2]; HCT-116, Run 3, 48 h, 1 μg/ml CDDP): 0.687
CVE Average ([2]; HCT-116, Run 3, 48 h, 10 μg/ml CDDP): 0.993
CVE Average ([2]; HCT-116, Run 3, 48 h, 100 μg/ml CDDP): 0.359
CVE Average ([2]; HCT-116, Run 3, 72 h, 0.1 μg/ml CDDP): 1.078
CVE Average ([2]; HCT-116, Run 3, 72 h, 1 μg/ml CDDP): 0.235
CVE Average ([2]; HCT-116, Run 3, 72 h, 10 μg/ml CDDP): 0.476
CVE Average ([2]; HCT-116, Run 3, 72 h, 100 μg/ml CDDP): 0.214
Average CVE ([2]; Run 1, 24 h, 0.1 μg/ml CDDP): 0.569
Average CVE ([2]; Run 1, 24 h, 1 μg/ml CDDP): 0.563
Average CVE ([2]; Run 1, 24 h, 10 μg/ml CDDP): 1.173
Average CVE ([2]; Run 1, 24 h, 100 μg/ml CDDP): 0.344
Average CVE ([2]; Run 1, 48 h, 0.1 μg/ml CDDP): 0.984
Average CVE ([2]; Run 1, 48 h, 1 μg/ml CDDP): 0.624
Average CVE ([2]; Run 1, 48 h, 10 μg/ml CDDP): 0.488
Average CVE ([2]; Run 1, 48 h, 100 μg/ml CDDP): 0.356
Average CVE ([2]; Run 1, 72 h, 0.1 μg/ml CDDP): 1.352
Average CVE ([2]; Run 1, 72 h, 1 μg/ml CDDP): 0.308
Average CVE ([2]; Run 1, 72 h, 10 μg/ml CDDP): 0.501
Average CVE ([2]; Run 1, 72 h, 100 μg/ml CDDP): 0.51
Average CVE ([2]; Run 2, 24 h, 0.1 μg/ml CDDP): 0.52
Average CVE ([2]; Run 2, 24 h, 1 μg/ml CDDP): 0.302
Average CVE ([2]; Run 2, 24 h, 10 μg/ml CDDP): 0.477
Average CVE ([2]; Run 2, 24 h, 100 μg/ml CDDP): 0.303
Average CVE ([2]; Run 2, 48 h, 0.1 μg/ml CDDP): 0.971
Average CVE ([2]; Run 2, 48 h, 1 μg/ml CDDP): 0.425
Average CVE ([2]; Run 2, 48 h, 10 μg/ml CDDP): 0.608
Average CVE ([2]; Run 2, 48 h, 100 μg/ml CDDP): 0.529
Average CVE ([2]; Run 2, 72 h, 0.1 μg/ml CDDP): 1.187
Average CVE ([2]; Run 2, 72 h, 1 μg/ml CDDP): 0.551
Average CVE ([2]; Run 2, 72 h, 10 μg/ml CDDP): 0.435
Average CVE ([2]; Run 2, 72 h, 100 μg/ml CDDP): 0.492

Reference: patent publication US20190343908A1, “Therapeutic Combination for the Treatment of Cancer” (Nerium Biotechnology Inc., priority 2011, published 2019)
